The results in this text go back to a melting point compilation (Tetko et al.).

As for `O=[N+]([O-])c1cccc(S(=O)(=O)OCC2CO2)c1` (stereo unspecified), the melting point (commonly the temperature of the solid-liquid transition) fell in the range of 61 to 65 °C. For `CN(C)C(=O)Cl` the value was -33 °C; for `COc1ccc2ncccc2c1`, 26.5 °C; for `O=C(Nc1cccc([N+](=O)[O-])c1)C(C(F)(F)F)C(F)(F)F`, 200 °C. For `O=[N+]([O-])c1ccc(O)c2ccccc12` the value was 166 °C. In turn, `Cn1ccc2cc([N+](=O)[O-])ccc21` yielded a melting point of 167 to 169 °C. On to `O=Cc1ccc(C(=O)O)s1`, for which the melting point came out at 169 °C. To `S=C(SN1CCOCC1)N1CCOCC1` belongs 139 °C.

`CCOc1ccc2c3c1OC1C(O)C=CC4C(C2)N(C)CCC341` (stereo unspecified) yielded a melting point of 200 °C. To `CCOC(=O)c1cc(C(C)(C)C)nn1Cc1c(C)cc(C)cc1C` belongs 72 to 74 °C; to `CCOC(=O)c1c(C)[nH]c2cc3[nH]c(C)c(C(=O)OCC)c3cc12`, 342 °C.

The molecule `NC(=O)/C(=C\c1ccc(F)cc1)c1nc2ccccc2s1` registered a melting point of 178 °C. For `FC(Cl)(Cl)c1ccccc1`, the melting point was -26.8 °C. For `CC(=O)Nc1ccc(S)cc1` the value was 149 to 154 °C; for `Cc1cccc(N/N=C(\C#N)c2nc(C)c(/N=N/c3ccccc3)s2)c1`, 211 °C. For `CN(C)c1ccc(C=C2C(=O)NC(=O)NC2=O)cc1` the value was 245 °C. To `CN1CCN(c2ccc(CO)cc2)CC1` belongs 118 to 119 °C; to `CCOc1cccc(C(=O)NN)c1`, 102 °C; to `O=C1CCc2ccccc2O1`, 25 °C. The molecule `CCCCCCCCc1ccc(O)cc1` showed a melting point of 45 °C. To `Cc1cc(Br)c(OCC(=O)NN)c2c1CCC2` belongs 69 to 70 °C. In turn, `O=C1OC2(CCCCC2)OC1c1ccccc1` (stereo unspecified) displayed a melting point of 87 °C.

`CC1=C(c2ccccc2)c2ccccc2C1` showed a melting point of 58 to 58.5 °C.

`c1ccc(O[Si](Oc2ccccc2)(Oc2ccccc2)Oc2ccccc2)cc1` displayed a melting point of 49 °C.

With `CCOC(=O)C12CCC(C(=O)OCC)(CC1=O)C(=O)C2`, the melting point lay within 111 to 113 °C.

Consider `O=C(COc1ccc(Cl)cc1)Nc1nc2ccccc2s1`, for which the melting point came out at 139 °C. Molecule `N#CC=Cc1cc(C(F)(F)F)cc(C(F)(F)F)c1` registered a melting point of 80 °C. For `COC(=O)c1ccc2c(c1)OCO2` the value was 53 °C. `CCCCCCC(O)CCCCC` (stereo unspecified) yielded a melting point of 30 °C.

`CCOC(=O)C(C#N)=C1CC(SC)=C(C(=O)OCC)C(=N)N1c1ccc(OC)cc1` came in with a melting point of 172 °C. In turn, `COc1c(C)c(C)c(OC)c2c1CC2Cl` (stereo unspecified) came in with a melting point of 113 °C. `N#CCCNC1CCCCC1` registered a melting point of 122 to 124 °C. For `COc1ccc(C2(C#N)CCCCC2)cc1` the value was 43 °C; for `CCC(O)(CC)C1(C)CCC(C(=O)O)C(C)(C)O1` (stereo unspecified), 138 °C. To `COc1c(Br)ccc(C)c1C(=O)O` belongs 125 °C.

Turning to `Cc1ccc(-c2ccc(C=CC(=O)c3ccco3)o2)cc1`, the melting point is 110 to 111 °C. For `CCCCCCF`, the melting point was -103 °C.

For `COc1cc(CC#N)c(OC)cc1CC#N`, the melting point fell in the range of 198 to 200 °C. For `CCOC(=O)c1cc2ccccc2cc1O`, the melting point lay within 80 to 81 °C. The molecule `N#Cc1ccc(F)c(F)c1` showed a melting point of 50 °C. `CNCc1ccc(-n2ccnc2)cc1` returned a melting point of 67 to 69 °C. For `ClC(=C(Cl)c1ccccc1)c1ccccc1` the value was 144 °C; for `CC(C)NC(=S)NC(C)C`, 144 °C; for `OCc1nccs1`, 62 to 64 °C.

Consider `O=C(O)c1cc(F)ccc1C(F)(F)F`, for which the melting point was determined as 82 °C. In turn, `Cc1noc(-c2ccccc2)c1CBr` registered a melting point of 72 °C.
